Literature values as cited in patent publication CN114917233A, “一种包含核苷类似物的药物组合物及其制备方法和应用” (Suzhou Vigonvita Life Sciences Co Ltd, priority 2022, dated 2022).

Key:
[1] = system: SARS-CoV-2
[2] = system: SARS-CoV-2; details: 5 μM, in vitro

In the case of `N#C[C@@]1(c2ccc3c(N)ncnn23)O[C@H](CO)[C@@H](O)[C@H]1O` [GS-441524], the “inhibition of SARS-CoV-2 replication (in words)” value [1] is given as “具有抑制作用”, the “inhibition of virus replication compared with RDV (in words)” value ([1]; versus RDV) is given as “更强的病毒复制抑制作用” and the “oral bioavailability (in words)” value is given as “低”.
In the case of `CCC(CC)COC(=O)[C@H](C)N[P@](=O)(OC[C@H]1O[C@@](C#N)(c2ccc3c(N)ncnn23)[C@H](O)[C@@H]1O)Oc1ccccc1` [RDV], the “inhibition of SARS-CoV-2 replication (in words)” value [1] is given as “具有抑制作用”.
In the case of `CC(C)C(=O)OC[C@H]1O[C@@](C#N)(c2ccc3c(N)ncnn23)[C@H](OC(=O)C(C)C)[C@@H]1OC(=O)C(C)C` [式I化合物, (2R,3R,4R,5R)-2-(4-氨基吡咯并[2,1-f][1,2,4]三嗪-7-基)-2-氰基-5-((异丁酰氧基)甲基)四氢呋喃-3,4-二基双(2-甲基丙酸酯)], the replication inhibition rate [2] is listed as 99%.
